Source: patent US12606561B2, “Substituted pyrazolo[1,5-a][1,3,5]triazines as CDK inhibitors” (QURIENT CO., LTD., priority 2018, dated 2026)

How the values were obtained:
CDK1/Cyclin B = biological target: T1, CDK1/Cyclin B (Homo sapiens, UniProt P06493); assay: Enzymatic assay for CDK1 (LANCE Ultra kinase assay, FRET based); assay type: biochemical; conditions: ATP at Km; read-out: CDK1 enzymatic activity IC50
T1 construct: purchased Invitrogen PR4768C
How it was run: (§1)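 With ATP set at its Km, compounds were tested against purified CDK/cyclin complexes phosphorylating a ULight-labeled peptide. Signal came from FRET between the peptide and a Europium-labeled anti-phospho-antibody.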

CDK2/Cyclin A = biological target: T2, CDK2/Cyclin A (Homo sapiens, UniProt P24941); assay: Enzymatic assay for CDK2 (LANCE Ultra kinase assay, FRET based); assay type: biochemical; conditions: ATP at Km
T2 construct: purchased Invitrogen PV6290
How it was run: (§2)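 Inhibition was measured at ATP Km with 68 nM ULight-MBP peptide and CDK2/Cyclin A ([…]) or CDK5/p25 ([…]), using 8-dose 4-fold compound dilutions from DMSO. Kinase reaction ran 60 min at 23° C, then Eu anti-phospho-MBP plus EDTA were added for another 60 min before the fluorescence read.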

CDK5/p25 = biological target: T3, CDK5/p25 (Homo sapiens, UniProt Q00535); assay: Enzymatic assay for CDK5 (LANCE Ultra kinase assay, FRET based); assay type: biochemical; conditions: ATP at Km
T3 construct: purchased Invitrogen PR8543B
How it was run: as §2

CDK7/Cyclin H/MNAT1 = biological target: T4, CDK7/Cyclin H/MNAT1 (Homo sapiens, UniProt P50613); assay: Enzymatic assay for CDK7 (LANCE Ultra kinase assay, FRET based); assay type: biochemical; conditions: for IC50: ATP at Km
T4 construct: purchased Invitrogen PR6749B
How it was run: as §1

A2780 = A2780 viability assay (CellTiter-Glo, 72 hours); assay type: cell-based; conditions: Homo sapiens; A2780 cells
Protocol: Human […] cell line, MV4-11_(ATCC, Cat #CRL-9591), NSCLC (Non-small cell lung cancer) cell line H460 (ATCC, Cat #HTB-177), A2780 (ECACC, Cat #93112519) and OVCAR-3(ATCC, Cat #HTB-161) were obtained from ATCC. Cells were grown in RPMI-1640 media (Invitrogen, Cat #22400-089) supplemented with 10% FBS (Invitrogen, Cat #10099141) and 1% penicillin/streptomycin (Invitrogen, Cat #15070063) and cultured at 37° C., 5% CO2 in a humidified chamber. All cell lines were routinely tested for mycoplasma.
To effect of the CDK7 inhibitor to inhibit the growth of target cancer cells, viability assay were conducted a 72 hour time period. Briefly, the candidate cell line was plated in 96 well plate at the following density of cells respectively. 1×10^4 cells/well for MV4-11, 5×10^3 for H460 and OVCAR-3, and 1×10^3 for A2780. After 24 hours, the cells were treated with various concentrations of the compound (ranging from 0.0015 uM to 10 uM). DMSO solvent without compound served as a control and final DMSO concentration lest than 0.1%. After 72 hours of incubation at 37° C., 5% CO2 incubator, cells were analyzed for the viability using the CellTiter-Glo Luminescent Cell Viability Assay (Promega, Cat #G7570). All viability assays were performed in duplicate and Luminescence was read using an Envision (Perkin Elmer, USA). Data was analyzed using XLfit software.

T1 sequence (P06493 whole entry): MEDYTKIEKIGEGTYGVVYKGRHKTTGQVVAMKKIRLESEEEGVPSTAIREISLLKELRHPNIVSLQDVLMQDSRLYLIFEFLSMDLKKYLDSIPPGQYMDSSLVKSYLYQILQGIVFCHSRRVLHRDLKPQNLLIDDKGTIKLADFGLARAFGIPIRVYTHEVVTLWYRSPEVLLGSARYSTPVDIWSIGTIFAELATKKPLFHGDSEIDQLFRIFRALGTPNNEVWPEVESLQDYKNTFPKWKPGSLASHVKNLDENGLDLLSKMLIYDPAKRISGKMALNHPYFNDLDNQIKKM
T1 sequence (P14635 whole entry partner): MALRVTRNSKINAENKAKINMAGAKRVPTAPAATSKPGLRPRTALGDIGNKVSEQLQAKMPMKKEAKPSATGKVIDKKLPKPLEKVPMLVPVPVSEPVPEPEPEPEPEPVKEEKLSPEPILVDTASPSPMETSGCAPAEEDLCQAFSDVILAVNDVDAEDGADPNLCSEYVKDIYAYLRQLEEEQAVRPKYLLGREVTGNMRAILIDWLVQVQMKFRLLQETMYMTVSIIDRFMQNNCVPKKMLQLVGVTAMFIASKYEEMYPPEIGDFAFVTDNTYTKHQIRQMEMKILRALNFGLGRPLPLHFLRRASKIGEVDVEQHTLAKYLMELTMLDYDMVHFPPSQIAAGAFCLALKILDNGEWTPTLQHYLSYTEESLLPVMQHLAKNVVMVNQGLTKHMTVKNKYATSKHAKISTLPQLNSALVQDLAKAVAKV
T4 sequence (P50613 whole entry): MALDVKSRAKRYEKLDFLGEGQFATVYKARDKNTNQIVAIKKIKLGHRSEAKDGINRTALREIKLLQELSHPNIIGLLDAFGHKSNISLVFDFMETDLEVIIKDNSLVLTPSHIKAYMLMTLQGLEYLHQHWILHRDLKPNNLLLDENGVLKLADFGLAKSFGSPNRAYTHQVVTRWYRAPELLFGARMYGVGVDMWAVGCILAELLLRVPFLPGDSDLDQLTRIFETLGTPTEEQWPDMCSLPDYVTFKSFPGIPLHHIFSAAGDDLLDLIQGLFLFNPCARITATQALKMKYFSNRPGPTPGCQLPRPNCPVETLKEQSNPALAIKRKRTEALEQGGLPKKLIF
T4 sequence (P51946 whole entry partner): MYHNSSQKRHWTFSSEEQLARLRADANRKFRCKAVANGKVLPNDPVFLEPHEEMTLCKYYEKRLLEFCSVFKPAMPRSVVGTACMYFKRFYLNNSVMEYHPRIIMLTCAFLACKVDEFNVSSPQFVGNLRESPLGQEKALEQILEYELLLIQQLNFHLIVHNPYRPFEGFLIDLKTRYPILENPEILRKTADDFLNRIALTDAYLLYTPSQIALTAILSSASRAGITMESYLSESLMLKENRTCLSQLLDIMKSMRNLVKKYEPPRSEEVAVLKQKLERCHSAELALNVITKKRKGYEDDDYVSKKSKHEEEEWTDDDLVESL
T4 sequence (P51948 whole entry partner): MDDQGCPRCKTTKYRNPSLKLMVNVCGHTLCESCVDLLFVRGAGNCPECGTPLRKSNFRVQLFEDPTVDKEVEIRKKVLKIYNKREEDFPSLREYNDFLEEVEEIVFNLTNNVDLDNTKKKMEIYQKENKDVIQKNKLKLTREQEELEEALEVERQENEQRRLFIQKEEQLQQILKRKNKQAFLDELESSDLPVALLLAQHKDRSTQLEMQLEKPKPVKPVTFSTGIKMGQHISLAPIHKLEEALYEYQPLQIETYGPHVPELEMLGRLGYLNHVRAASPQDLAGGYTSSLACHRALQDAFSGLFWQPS
T3 sequence (Q00535 whole entry): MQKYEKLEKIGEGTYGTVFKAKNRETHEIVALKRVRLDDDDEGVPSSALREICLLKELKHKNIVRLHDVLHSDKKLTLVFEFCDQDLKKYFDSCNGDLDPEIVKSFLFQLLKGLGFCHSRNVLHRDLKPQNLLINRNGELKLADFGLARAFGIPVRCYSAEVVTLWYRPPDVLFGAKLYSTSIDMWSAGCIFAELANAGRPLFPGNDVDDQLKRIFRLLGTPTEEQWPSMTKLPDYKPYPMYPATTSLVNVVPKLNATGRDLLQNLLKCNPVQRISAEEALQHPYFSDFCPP
T3 sequence (Q15078 99-307 partner limits assumed): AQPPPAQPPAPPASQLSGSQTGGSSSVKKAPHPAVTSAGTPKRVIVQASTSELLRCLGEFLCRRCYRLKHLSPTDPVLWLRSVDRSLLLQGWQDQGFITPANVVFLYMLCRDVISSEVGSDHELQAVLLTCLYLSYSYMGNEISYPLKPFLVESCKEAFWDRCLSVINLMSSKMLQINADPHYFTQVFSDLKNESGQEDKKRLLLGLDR

Row | SMILES | IC50 (CDK1/Cyclin B) [nM] | IC50 (CDK2/Cyclin A) [nM] | IC50 (CDK5/p25) [nM] | IC50 (CDK7/Cyclin H/MNAT1) [nM] | CDK1/CDK7: Selectivity of CDK7 inhibition over CDK1 inhibition (CDK7/Cyclin H/MNAT1) | CDK2/CDK7: Selectivity of CDK7 inhibition over CDK2 inhibition (CDK7/Cyclin H/MNAT1) | CDK5/CDK7: Selectivity of CDK7 inhibition over CDK5 inhibition (CDK7/Cyclin H/MNAT1) | IC50 (A2780) [nM]
1 | C=C(C)C(=O)Nc1ccc2c(-c3ccccc3CNc3nc(OC4CCC(C)(C)NC4)nc4c(C(C)C)cnn34)nccc2c1 (stereo not drawn) [Compound 190] | > 1000 | > 1000 | > 1000 | < 100 | A (A indicates [fold] > 500) | A (A indicates [fold] > 500) | A (A indicates [fold] > 500) | < 1000
2 | C=CC(=O)Nc1ccc2c(-c3ccccc3CNc3nc(NC4CCC(C)(C)NC4)nc4c(C(F)(F)F)cnn34)nccc2c1 (stereo not drawn) [Compound 215] | > 1000 | > 1000 | > 1000 | < 100 | A (A indicates [fold] > 500) | A (A indicates [fold] > 500) | A (A indicates [fold] > 500) | < 1000
3 | C=CC(=O)Nc1ccc2c(-c3ccccc3CNc3cc(Cl)nc4c(C(C)C)cnn34)nccc2c1 [Compound 193] | > 1000 | > 1000 | > 1000 | < 100 | A (A indicates [fold] > 500) | A (A indicates [fold] > 500) | A (A indicates [fold] > 500) | < 1000
4 | C=CC(=O)Nc1ccc2c(-c3ccccc3CNc3nc(-c4cccnc4)nc4c(C(C)C)cnn34)nccc2c1 [Compound 200] | > 1000 | > 1000 | > 1000 | < 100 | B (B indicates 50 < [fold] ≤ 500) | B (B indicates 50 < [fold] ≤ 500) | B (B indicates 50 < [fold] ≤ 500) | < 1000
5 | C=CC(=O)Nc1ccc2c(-c3ccccc3CNc3cc(C4CC4)nc4c(C(C)C)cnn34)nccc2c1 [Compound 197] | > 1000 | > 1000 | > 1000 | < 100 | A (A indicates [fold] > 500) | A (A indicates [fold] > 500) | A (A indicates [fold] > 500) | < 1000
6 | C=CC(=O)N1CCc2c(ccnc2-c2ccccc2CNc2nc(OC3CCC(C)(C)NC3)nc3c(C(C)C)cnn23)C1 (stereo not drawn) [Compound 203] | > 1000 | > 1000 | > 1000 | < 100 | A (A indicates [fold] > 500) | A (A indicates [fold] > 500) | A (A indicates [fold] > 500) | < 1000
7 | C=CC(=O)Nc1ccc2c(-c3ccccc3CNc3nc(Nc4ccncc4)nc4c(C(C)C)cnn34)nccc2c1 [Compound 189] | > 1000 | > 1000 | > 1000 | 100 to 1000 | B (B indicates 50 < [fold] ≤ 500) | B (B indicates 50 < [fold] ≤ 500) | B (B indicates 50 < [fold] ≤ 500) | 1000 to 10000
8 | C=CC(=O)Nc1ccc2c(-c3ccccc3CNc3nc(N4CCc5ncccc5C4)nc4c(C(C)C)cnn34)nccc2c1 [Compound 212] | > 1000 | > 1000 | > 1000 | < 100 | A (A indicates [fold] > 500) | A (A indicates [fold] > 500) | A (A indicates [fold] > 500) | < 1000
9 | C=CC(=O)Nc1ccc2c(-c3ccccc3CNc3cc(C)nc4c(C(C)C)cnn34)nccc2c1 [Compound 195] | > 1000 | > 1000 | > 1000 | < 100 | A (A indicates [fold] > 500) | A (A indicates [fold] > 500) | A (A indicates [fold] > 500) | < 1000
